Laboratory results taken from patent publication US20240279207A1, “SUBSTITUTED ACYL SULFONAMIDES FOR TREATING CANCER” (The Broad Institute, Inc., priority 2020, published 2024).
Where two headings read alike, the source gives them in different places.

Columns and labels:
ZR-75-1 cells = test: ZR-75-1 proliferation assay; format: cell-based; conditions: Alamar Blue, read-out: ZR75-1 proliferation assay, EC50 [M] (arithmetic mean)
Method in brief: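 ZR-75-1 cells (focal KAT6A amplification), 3000 per well in RPMI 1640 with 2.5% FBS, were exposed to compound in triplicate for 144 h at 37 °C, 5% CO2. Viability read by Alamar Blue fluorescence at 590 nm after 2 h.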

MDA-MB-436 cells = test: MDA-MB-436 proliferation assay (negative control cell line); format: cell-based; conditions: 144 h, Alamar Blue, read-out: MDA-MB-436 proliferation assay, EC50 [M] (arithmetic mean)
Method in brief: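 MDA-MB-436 cells (KAT6A deletion, low KAT6A protein) seeded at 3000 cells/well in DMEM/Ham's F12 with 2.5% FBS, treated in triplicate for 144 h at 37° C, 5% CO2. Viability read by Alamar Blue fluorescence at 590 nm after 2 h.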

LCLC97TM1 = LCLC97TM1 proliferation assay; format: cell-based; conditions: read-out: LCLC97TM1 proliferation assay, EC50 [M] (arithmetic mean)
[1] = molecular target: T1, Recombinant human His-tagged Kat6a protein (amino acids 194-810) (Homo sapiens, UniProt Q92794); test: Kat6a activity assay (TR-FRET, acetylation of Histone-H4-derived peptide); format: biochemical; conditions: 60 mins at 22° C., 220 nM H4 peptide, 600 nM Acetyl Coenzyme A, read-out: KAT6A - DPF/HAT domain IC50 [mol/l] (arithmetic mean)
T1 construct: Kat6a protein (amino acids 194-810); His
T1 sequence (Q92794 194-810): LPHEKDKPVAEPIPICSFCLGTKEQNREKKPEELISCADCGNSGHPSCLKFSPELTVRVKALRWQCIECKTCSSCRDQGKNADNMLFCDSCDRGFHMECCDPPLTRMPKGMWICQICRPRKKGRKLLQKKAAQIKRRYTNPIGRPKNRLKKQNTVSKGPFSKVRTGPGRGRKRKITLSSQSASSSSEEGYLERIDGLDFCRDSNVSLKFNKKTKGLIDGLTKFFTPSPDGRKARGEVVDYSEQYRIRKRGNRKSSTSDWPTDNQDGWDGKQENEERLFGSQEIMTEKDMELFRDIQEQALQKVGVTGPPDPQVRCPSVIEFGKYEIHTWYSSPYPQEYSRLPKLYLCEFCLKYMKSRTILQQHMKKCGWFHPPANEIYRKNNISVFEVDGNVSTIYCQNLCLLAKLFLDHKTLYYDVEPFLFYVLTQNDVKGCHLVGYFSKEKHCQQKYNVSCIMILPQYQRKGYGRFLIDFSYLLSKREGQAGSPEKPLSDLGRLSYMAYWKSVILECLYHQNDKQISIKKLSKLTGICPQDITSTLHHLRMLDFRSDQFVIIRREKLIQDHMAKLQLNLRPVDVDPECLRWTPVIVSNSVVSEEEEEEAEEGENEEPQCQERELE

[2] = tested on: ESR1 transcription in MVLN cells; test: MVLN reporter assay: repression of ESR1 transcription (luciferase signal); format: cell-based; conditions: luciferase signal after 24 h, read-out: MVLN reporter assay, IC50 [M] (arithmetic mean)
Method in brief: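 To control for cell loss, Alamar Blue (2 h, 530/590 nm) precedes the 24 h luciferase measurement. The reporter is an ERE from the Xenopus vitellogenin A2 gene driving luciferase, stably transfected into ER-expressing MVLN cells; duplicate samples.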

[3] = molecular target: T2, Recombinant human GST-tagged Kat6b protein (431-end) (Homo sapiens, UniProt Q8WYB5); test: Kat6b activity assay (TR-FRET, acetylation of Histone-H4-derived peptide); format: biochemical; conditions: 30 mins at 22° C., 500 nM H4 peptide, 600 nM Acetyl Coenzyme A, read-out: KAT6B activity assay IC50 [mol/l] (arithmetic mean)
T2 construct: Kat6b protein (431-end, N-terminal GST-tag); GST (N)
T2 sequence (Q8WYB5 431-2073): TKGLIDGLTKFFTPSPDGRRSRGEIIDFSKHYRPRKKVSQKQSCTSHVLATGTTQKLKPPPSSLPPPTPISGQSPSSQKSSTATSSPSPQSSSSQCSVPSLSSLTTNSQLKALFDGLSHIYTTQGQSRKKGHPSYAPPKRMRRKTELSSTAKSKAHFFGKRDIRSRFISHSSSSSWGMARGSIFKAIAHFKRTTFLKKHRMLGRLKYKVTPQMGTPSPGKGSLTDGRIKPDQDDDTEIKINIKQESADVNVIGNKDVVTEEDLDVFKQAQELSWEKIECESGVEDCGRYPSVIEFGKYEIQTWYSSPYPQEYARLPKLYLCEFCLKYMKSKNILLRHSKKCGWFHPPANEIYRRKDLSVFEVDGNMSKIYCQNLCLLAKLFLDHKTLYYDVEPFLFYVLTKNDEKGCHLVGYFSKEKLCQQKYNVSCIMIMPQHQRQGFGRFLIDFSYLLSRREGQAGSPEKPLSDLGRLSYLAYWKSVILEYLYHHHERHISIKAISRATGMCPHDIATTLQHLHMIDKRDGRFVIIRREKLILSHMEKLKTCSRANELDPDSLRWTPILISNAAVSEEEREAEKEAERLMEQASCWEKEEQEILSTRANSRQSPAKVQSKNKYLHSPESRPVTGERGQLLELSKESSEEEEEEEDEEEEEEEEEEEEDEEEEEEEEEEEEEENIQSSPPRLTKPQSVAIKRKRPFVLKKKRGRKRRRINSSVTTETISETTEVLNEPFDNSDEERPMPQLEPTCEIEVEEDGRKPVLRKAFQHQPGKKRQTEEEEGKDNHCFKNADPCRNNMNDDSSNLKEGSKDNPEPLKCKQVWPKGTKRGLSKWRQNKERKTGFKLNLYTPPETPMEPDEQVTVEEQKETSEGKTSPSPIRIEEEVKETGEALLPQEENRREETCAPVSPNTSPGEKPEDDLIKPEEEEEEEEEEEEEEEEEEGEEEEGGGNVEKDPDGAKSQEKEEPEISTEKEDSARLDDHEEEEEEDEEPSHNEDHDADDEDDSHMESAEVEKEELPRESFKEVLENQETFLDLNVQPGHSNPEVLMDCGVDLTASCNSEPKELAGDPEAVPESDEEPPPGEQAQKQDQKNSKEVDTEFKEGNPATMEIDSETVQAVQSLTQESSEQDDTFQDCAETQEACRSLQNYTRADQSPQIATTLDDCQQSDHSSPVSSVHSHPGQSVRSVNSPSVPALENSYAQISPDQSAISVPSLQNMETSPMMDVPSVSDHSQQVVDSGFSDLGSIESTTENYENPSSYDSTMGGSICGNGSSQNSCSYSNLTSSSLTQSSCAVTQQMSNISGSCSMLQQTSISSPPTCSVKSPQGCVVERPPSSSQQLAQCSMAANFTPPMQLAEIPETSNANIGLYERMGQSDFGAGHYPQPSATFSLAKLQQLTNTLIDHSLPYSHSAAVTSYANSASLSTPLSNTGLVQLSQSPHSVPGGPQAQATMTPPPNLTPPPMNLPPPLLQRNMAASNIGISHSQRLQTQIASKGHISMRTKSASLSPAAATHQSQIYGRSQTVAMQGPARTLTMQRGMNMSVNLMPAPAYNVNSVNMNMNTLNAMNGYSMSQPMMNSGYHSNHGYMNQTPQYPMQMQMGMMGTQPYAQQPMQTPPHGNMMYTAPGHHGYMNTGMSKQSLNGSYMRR
Description: Kat6b inhibitory activities of the compounds described in the present invention were quantified using a Fluorescence Resonance Energy Transfer (TR-FRET) assay which measures acetylation of a synthetic, biotinylated Histone-H4-derived peptide by the enzyme.
In this case 50 nl DMSO were used instead of compounds. […] IC50 values were determined by regression analysis based on a 4 parameter equation (minimum, maximum, ICM, Hill; Y=Max+(Min−Max)/(1+(X/ICso) Hill) using the Screener Software (Genedata).

[4] = Homo sapiens, LCLC-97TM1, LCLC97TM1

SMILES	EC50 (MDA-MB-436 cells)	IC50 [1]	IC50 [2]	IC50 [3]	EC50 (MDA-MB-436 cells; Homo sapiens)	IC50 ([2]; Homo sapiens, MVLN, 24 h)	EC50 (ZR-75-1 cells; 144 h)	EC50 (LCLC97TM1; LCLC97TM1)	EC50 (ZR-75-1 cells; Homo sapiens, ZR-75-1, 144 h)	EC50 (LCLC97TM1; [4])
CCOc1ccccc1S(=O)(=O)NC(=O)c1cc2c(F)cc(N3CCC3)cc2o1 [Example 126, Sodium [6-(azetidin-1-yl)-4-fluoro-1-benzofuran-2-carbonyl](2-ethoxybenzene-1-sulfonyl)azanide]	> 2e-05 M	56.5 nM	9.43e-08 M	285 nM	–	–	3.07e-07 M	1.12e-06 M	–	–
CCOc1ccc(C(C)C)cc1S(=O)(=O)NC(=O)c1cc2c(F)cc(N3CCC3)cc2o1 [Example 128, 6-(Azetidin-1-yl)-N-[2-ethoxy-5-(propan-2-yl)benzene-1-sulfonyl]-4-fluoro-1-benzofuran-2-carboxamide]	–	8.15 nM	–	15.1 nM	> 2e-05 M	1.9e-08 M	–	–	6.73e-08 M	2.2e-07 M
CC(C)Oc1ccccc1S(=O)(=O)NC(=O)c1cc2c(F)cc(N3CCC3)cc2o1 [Example 129, 6-(Azetidin-1-yl)-4-fluoro-N-{2-[(propan-2-yl)oxy]benzene-1-sulfonyl}-1-benzofuran-2-carboxamide]	–	36.4 nM	–	51.8 nM	> 2e-05 M	2.74e-08 M	–	–	1.42e-07 M	4.11e-07 M
O=C(NS(=O)(=O)c1ccccc1OC1CC1)c1cc2c(F)cc(N3CCC3)cc2o1 [Example 131, 6-(Azetidin-1-yl)-N-[2-(cyclopropyloxy)benzene-1-sulfonyl]-4-fluoro-1-benzofuran-2-carboxamide]	–	23.4 nM	–	23.2 nM	> 2e-05 M	3.83e-08 M	–	–	2.09e-07 M	7.53e-08 M
COc1ccc(C(C)(C)C)cc1S(=O)(=O)NC(=O)c1cc2c(F)cc(N3CC(F)C3)cc2o1 [Example 150, N-(5-tert-butyl-2-methoxybenzene-1-sulfonyl)-4-fluoro-6-(3-fluoroazetidin-1-yl)-1-benzofuran-2-carboxamide]	–	4.25 nM	–	9.78 nM	> 2e-05 M	5.97e-09 M	–	–	5.78e-08 M	4.58e-08 M
CC(C)(C)c1ccc(OC2CCC2)c(S(=O)(=O)NC(=O)c2cc3c(F)cc(N4CCC4)cc3o2)c1 [Example 228, 6-(Azetidin-1-yl)-N-[(5-(tert-butyl)-2-cyclobutoxyphenyl)sulfonyl]-4-fluorobenzofuran-2-carboxamide]	–	2.57 nM	–	13.4 nM	> 2e-05 M	2.39e-08 M	–	–	1.16e-07 M	1.67e-07 M

The next lines start with results.

EC50 (MDA-MB-436 cells)	IC50 [1]	IC50 [2]	IC50 [3]	EC50 (MDA-MB-436 cells; Homo sapiens)	IC50 ([2]; Homo sapiens, MVLN, 24 h)	SMILES	EC50 (ZR-75-1 cells; 144 h)	EC50 (LCLC97TM1; LCLC97TM1)	EC50 (ZR-75-1 cells; Homo sapiens, ZR-75-1, 144 h)	EC50 (LCLC97TM1; [4])
–	13.7 nM	–	19.6 nM	> 2e-05 M	3.23e-08 M	Cc1ccc2cccc(S(=O)(=O)NC(=O)c3cc4c(F)cc(N5CCC5)cc4o3)c2n1 [Example 130, 6-(Azetidin-1-yl)-4-fluoro-N-(2-methylquinoline-8-sulfonyl)-1-benzofuran-2-carboxamide]	–	–	8.86e-08 M	2.36e-07 M
–	5.81 nM	–	13.7 nM	> 2e-05 M	1.55e-08 M	CCOc1ccc(C(C)C)cc1S(=O)(=O)NC(=O)c1cc2c(F)cc(N3CC(F)C3)cc2o1 [Example 151, N-[2-ethoxy-5-(propan-2-yl)benzene-1-sulfonyl]-4-fluoro-6-(3-fluoroazetidin-1-yl)-1-benzofuran-2-carboxamide]	–	–	5.67e-08 M	6.63e-08 M
–	13.9 nM	–	20.3 nM	> 2e-05 M	3.69e-08 M	Cc1ccc2cccc(S(=O)(=O)NC(=O)c3cc4c(F)cc(N5CC(F)C5)cc4o3)c2n1 [Example 152, 4-Fluoro-6-(3-fluoroazetidin-1-yl)-N-(2-methylquinoline-8-sulfonyl)-1-benzofuran-2-carboxamide]	–	–	7.66e-08 M	1.63e-07 M
–	5.07 nM	–	20.1 nM	> 2e-05 M	1.11e-07 M	COc1ccc(-c2cn(C)nc2C)cc1S(=O)(=O)NC(=O)c1cc2c(F)cc(N3CCC3)cc2o1 [Example 195, 6-(Azetidin-1-yl)-N-[5-(1,3-dimethyl-1H-pyrazol-4-yl)-2-methoxybenzene-1-sulfonyl]-4-fluoro-1-benzofuran-2-carboxamide]	–	–	1.99e-07 M	8.37e-07 M
–	6.18 nM	–	14.7 nM	1.41e-05 M	3.31e-08 M	CC(C)c1ccc(OCc2ccccc2)c(S(=O)(=O)NC(=O)c2cc3c(F)cc(N4CCC4)cc3o2)c1 [Example 213, 6-(azetidin-1-yl)-N-(2-benzyloxy-5-isopropyl-phenyl)sulfonyl-4-fluoro-benzofuran-2-carboxamide]	–	–	1.17e-07 M	1.52e-07 M
–	3.72 nM	–	9.82 nM	1.77e-05 M	2.76e-08 M	CC(C)(C)c1ccc(OC2CC2)c(S(=O)(=O)NC(=O)c2cc3c(F)cc(N4CCC4)cc3o2)c1 [Example 224, 6-(Azetidin-1-yl)-N-[(5-(tert-butyl)-2-cyclopropoxyphenyl)sulfonyl]-4-fluorobenzofuran-2-carboxamide]	–	–	7.5e-08 M	1.14e-07 M
–	3.72 nM	–	9.82 nM	1.77e-05 M	2.76e-08 M	CC(C)(C)c1ccc(OCc2ccccc2)c(S(=O)(=O)NC(=O)c2cc3c(F)cc(N4CCC4)cc3o2)c1 [Example 225, 6-(Azetidin-1-yl)-N-[(2-(benzyloxy)-5-(tert-butyl)phenyl]sulfonyl)-4-fluorobenzofuran-2-carboxamide]	–	–	7.5e-08 M	1.14e-07 M
–	4.79 nM	–	27.6 nM	> 2e-05 M	3.83e-08 M	CC(C)Oc1ccc(C(C)(C)C)cc1S(=O)(=O)NC(=O)c1cc2c(F)cc(N3CCC3)cc2o1 [Example 229, 6-(Azetidin-1-yl)-N-[(5-(tert-butyl)-2-isopropoxyphenyl)sulfonyl]-4-fluorobenzofuran-2-carboxamide]	–	–	2.18e-07 M	1.8e-07 M
